Measurements published in patent US8269000B2, “Substituted pyrimidine and triazine compounds” (Gruenenthal GmbH, priority 2008, dated 2012).

What follows are compounds tested against T1, rat B1R (Rattus norvegicus, UniProt P97583) (assay: FLIPR Ca2+ functional study on bradykinin receptor 1 (rB1R CHO K1 cells)). Conditions: % inhibition rat B1R at 10 μM.
T1 construct: expressed in transfected cells; host or cells: CHO K1 cells
T1 sequence (P97583 1-337): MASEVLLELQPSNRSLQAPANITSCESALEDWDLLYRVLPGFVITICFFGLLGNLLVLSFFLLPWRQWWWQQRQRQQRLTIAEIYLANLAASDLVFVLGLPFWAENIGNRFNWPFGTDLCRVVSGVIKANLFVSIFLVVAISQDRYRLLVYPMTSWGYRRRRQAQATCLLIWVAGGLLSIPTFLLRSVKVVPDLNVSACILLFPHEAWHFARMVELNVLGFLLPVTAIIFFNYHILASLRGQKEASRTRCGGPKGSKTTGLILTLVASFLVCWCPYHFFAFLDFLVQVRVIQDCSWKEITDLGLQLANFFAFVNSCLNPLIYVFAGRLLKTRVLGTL
Format: cell-based
Protocol: The agonistic or antagonistic activity of substances can be quantified on the bradykinin receptor 1 (B1R) of the species human and rat using ectopically expressing cell lines (CHO K1 cells) and with the aid of a Ca^2+-sensitive dye (Fluo-4) using a fluorescent imaging plate reader (FLIPR). The indication in % activation is based on the Ca^2+ signal after addition of Lys-Des-Arg^9-bradykinin (0.5 nM) or Des-Arg^9-bradykinin (100 nM). Antagonists lead to suppression of the Ca^2+ influx after the addition of the agonist. % Inhibition compared with the maximum achievable inhibition is indicated.
The agonistic or antagonistic activity of substances can be determined on the bradykinin receptor 1 (B1R) of the species human and rat using the following assay. According to this assay, the Ca^2+ influx through the channel is quantified with the aid of a Ca^2+-sensitive dye (Fluo-4 type, Molecular Probes Europe BV, Leiden, Netherlands) using a Fluorescent Imaging Plate Reader (FLIPR, Molecular Devices, Sunnyvale, USA).
Chinese hamster ovary cells (CHO K1 cells) which have been stably transfected with the human B1R gene (hB1R cells) or with the B1R gene of the rat (rB1R cells) are used. For functional studies, the cells are plated out on black 96-well plates having a clear base (BD Biosciences, Heidelberg, Germany or Greiner, Frickenhausen, Germany) in a density of 20,000-35,000 cells/well. The cells are left overnight at 37° C. and with 5% CO2 in culture medium (hB1R cells: Nutrient Mixture Ham's F12, Gibco Invitrogen GmbH, Karlsruhe, Germany or DMEM, Sigma-Aldrich, Taufkirchen, Germany; rB1R cells: D-MEM/F12, Gibco Invitrogen GmbH, Karlsruhe, Germany), with 10 vol.% FBS (fetal bovine serum, Gibco Invitrogen GmbH, Karlsruhe, Germany or PAN Biotech GmbH, Aidenbach, Germany). On the following day, the cells are loaded for 60 minutes at 37° C. with 2.13 μM Fluo-4 (Molecular Probes Europe BV, Leiden, Netherlands) in HBSS buffer (Hank's buffered saline solution, Gibco Invitrogen GmbH, Karlsruhe, Germany) […] (Sigma-Aldrich, Taufkirchen, Germany) and 10 mM HEPES (Sigma-Aldrich, Taufkirchen, Germany). The plates are then washed twice with HBSS buffer, and HBSS buffer additionally containing 0.1% BSA (bovine serum albumin; Sigma-Aldrich, Taufkirchen, Germany), 5.6 mM glucose and 0.05% gelatin (Merck KGaA, Darmstadt, Germany) is added to the plates. After incubation for a further 20 minutes at room temperature, the plates are inserted into the FLIPR for Ca^2+ measurement. Alternatively, washing is carried out with buffer A (15 mM HEPES, 80 mM NaCl, 5 mM KCl, 1.2 mM CaCl2, 0.7 mM MgSO4, 2 g/l glucose, 2.5 mM probenecid) followed by loading with buffer A with added 2.5 μM Fluo-4 and 0.025% Pluronic F127 (Sigma-Aldrich, Taufkirchen, Germany). The cells are then washed twice with buffer A and incubated for 30 minutes at room temperature with buffer A additionally containing 0.05% BSA and 0.05% gelatin and are then inserted into the FLIPR for Ca^2+ measurement. The Ca^2+-dependent fluorescence is measured before and after the addition of substances (λex=488 nm, λem=540 nm). Quantification is carried out by measuring the highest fluorescence intensity (FC, fluorescence counts) over time.
The FLIPR protocol consists of two substance additions. Test substances (10 μM) are first pipetted onto the cells and the Ca^2+ influx is compared with the control (hB1R: Lys-Des-Arg^9-bradykinin>=50 nM; rB1R: Des-Arg^9-bradykinin 10 μM). This gives the activation in %, based on the Ca^2+ signal after addition of Lys-Des-Arg^9-bradykinin (>=50 nM) or Des-Arg^9-bradykinin (10 μM). After 10-20 minutes' incubation, Lys-Des-Arg^9-bradykinin (hB1R) or Des-Arg^9-bradykinin (rB1R) is applied in the concentration of the EC80, and the influx of Ca^2+ is likewise determined. Antagonists lead to suppression of the Ca^2+ influx. The % inhibition compared with the maximum achievable inhibition is calculated. […]

Going from COc1cc(C)c(S(=O)(=O)N2CCCCC2COc2ccnc(N3CCN(c4ccncc4)CC3)n2)c(C)c1 (stereo not drawn) [H_CC-005, 4-[[1-(4-methoxy-2,6-dimethylphenyl)sulfonyl-2-pipendinyl]methoxy]-2-[4-(4-pyridyl)-1-piperazinyl]pyrimidine] to COc1cc(C)c(S(=O)(=O)N(C)C(COc2nccc(N3CCN(C4CCN(C)CC4)CC3)n2)c2ccccc2)c(C)c1 (stereo not drawn) [G_CC-059, 4-methoxy-N,2,6-trimethyl-N-[2-[[4-[4-(1-methyl-4-pipendinyl)-1-piperazinyl]-2-pyrimidinyl]oxy]-1-phenylethyl]benzenesulfonamide], the “% inh. (rat B1R) 10 μM” value rises from 94% to 98%.

Same assay, conditions: CHO-K1, % inhibition rat B1R at 10 μM, read-out: % inh. (rat B1R) 10 μM

Going from COc1cc(C)c(S(=O)(=O)N(C)C(COc2nccc(N(C)CCN3CCC(O)(c4cccnc4)CC3)n2)c2ccccc2)c(C)c1 (stereo not drawn) [G_CC-138, N-[2-[4-[2-(4-hydroxy-4-pyridin-3-yl-piperidin-1-yl)-ethyl-methyl-amino]-pyrimidin-2-yl]oxy-1-phenyl-ethyl]-4-methoxy-N,2,6-trimethyl-benzenesulfonic acid amide] to COc1cc(C)c(S(=O)(=O)N2CCC[C@H]2COc2nccc(N3CCC(O)(c4cccnc4)CC3)n2)c(C)c1 [G_CC-020, 1-[2-[[(2S)-1-(4-methoxy-2,6-dimethylphenyl)sulfonyl-2-pyrrolidinyl]methoxy]-4-pyrimidinyl]-4-(3-pyridyl)-4-piperidinol], the inhibition at 10 µM rises from 56% to 102%.

Going from COc1cc(C)c(S(=O)(=O)N2CCC[C@H]2COc2ccnc(N(C)CCN3CCC(c4ccccc4)(N4CCCC4)CC3)n2)c(C)c1 [H_CC-055, [4-[[(2S)-1-[(4-methoxy-2,6-dimethyl-phenyl)sulfonyl]-pyrrolidin-2-yl]-methoxy]-pyrimidin-2-yl]-methyl-[2-(4-phenyl-4-pyrrolidin-1-yl-piperidin-1-yl)-ethyl]-amine] to COc1cc(C)c(S(=O)(=O)N2CCC[C@H]2COc2ccnc(N(C)CCCN3CCC(c4ccccc4)(N(C)C)CC3)n2)c(C)c1 [H_CC-046, 3-(4-dimethylamino-4-phenyl-piperidin-1-yl)-propyl-[4-[[(2S)-1-[(4-methoxy-2,6-dimethyl-phenyl)sulfonyl]-pyrrolidin-2-yl]-methoxy]-pyrimidin-2-yl]-methyl-amine], the inhibition at 10 µM falls from 92% to 89%.

First: COc1cc(C)c(S(=O)(=O)N2c3ccccc3C[C@H]2COc2nccc(N3CC4CC3CN4Cc3ccc(F)cc3)n2)c(C)c1 (stereo partly drawn) [G_CC-130, (2S)-2-[[4-[2-[(4-fluorophenyl)-methyl]-2,5-diazabicyclo[2.2.1]heptan-5-yl]-pyrimidin-2-yl]oxy-methyl]-1-[(4-methoxy-2,6-dimethyl-phenyl)sulfonyl]-2,3-dihydro-1H-indole]
Second: CCCCC1(N(C)C)CCN(c2ccnc(OC[C@@H]3Cc4ccccc4N3S(=O)(=O)c3c(C)cc(OC)cc3C)n2)CC1 [G_CC-093, [4-butyl-1-[2-[[(2S)-1-[(4-methoxy-2,6-dimethyl-phenyl)sulfonyl]-2,3-dihydro-1H-indol-2-yl]-methoxy]-pyrimidin-4-yl]-piperidin-4-yl]-dimethyl-amine]
The inhibition at 10 µM of the first is lower: 61% for the first, 91% for the second.

Going from COc1cc(C)c(S(=O)(=O)N(C)CCOc2nccc(N3CCC4(CC3)C(=O)N(C)CC4c3ccc(F)cc3)n2)c(C)c1 (stereo not drawn) [G_CC-044, N-[2-[[4-[1-(4-fluorophenyl)-3-methyl-4-oxo-3,8-diazaspiro[4.5]decan-8-yl]-2-pyrimidinyl]oxy]ethyl]-4-methoxy-N,2,6-trimethylbenzenesulfonamide] to COc1cc(C)c(S(=O)(=O)N(C)CCOc2nccc(N3CCN(c4ccc(F)cc4)CC3)n2)c(C)c1 [G_CC-005, N-[2-[[4-[4-(4-fluorophenyl)-1-piperazinyl]-2-pyrimidinyl]oxy]ethyl]-4-methoxy-N,2,6-trimethylbenzenesulfonamide], the inhibition at 10 µM rises from 68% to 81%.

First: COc1cc(C)c(S(=O)(=O)N2CCCC(Oc3ccnc(N4CCC(CCN5CCCCC5)CC4)n3)C2)c(C)c1 (stereo not drawn) [H_CC-041, 4-[[1-(4-methoxy-2,6-dimethylphenyl)sulfonyl-3-piperidinyl]oxy]-2-[4-[2-(1-piperidyl)ethyl]-1-piperidinyl]pyrimidine]
Second: COc1cc(C)c(S(=O)(=O)N2CCCCC2COc2ccnc(N3CCC(C)(N4CCOCC4)CC3)n2)c(C)c1 (stereo not drawn) [H_CC-081, 4-[1-[4-[[1-[(4-methoxy-2,6-dimethyl-phenyl)sulfonyl]-piperidin-2-yl]-methoxy]-pyrimidin-2-yl]-4-methyl-piperidin-4-yl]-morpholine]
The inhibition at 10 µM of the first is lower: 48% for the first, 61% for the second.

Compared with COc1cc(C)c(S(=O)(=O)N2CCC[C@H]2COc2nccc(N3CCC(N4CCN(C)CC4)CC3)n2)c(C)c1 [G_CC-017, 2-[[(2S)-1-(4-methoxy-2,6-dimethylphenyl)sulfonyl-2-pyrrolidinyl]methoxy]-4-[4-(4-methyl-1-piperazinyl)-1-piperidinyl]pyrimidine], COc1cc(C)c(S(=O)(=O)N(C)CCOc2nccc(N3CCC(N4CCN(C)CC4)CC3)n2)c(C)c1 [G_CC-006, 4-methoxy-N,2,6-trimethyl-N-[2-[[4-[4-(4-methyl-1-piperazinyl)-1-piperidinyl]-2-pyrimidinyl]oxy]ethyl]benzenesulfonamide] is lower in inhibition at 10 µM: 98% for the first, 97% for the second.

Compared with COc1cc(C)c(S(=O)(=O)N2CCCCC2COc2ccnc(N3CCC(O)(c4ccccn4)CC3)n2)c(C)c1 (stereo not drawn) [H_CC-083, 1-[4-[[1-[(4-methoxy-2,6-dimethyl-phenyl)sulfonyl]-piperidin-2-yl]-methoxy]-pyrimidin-2-yl]-4-pyridin-2-yl-piperidin-4-ol], COc1cc(C)c(S(=O)(=O)N2CCCCC2COc2nccc(N3CCC(O)(c4ccccn4)CC3)n2)c(C)c1 (stereo not drawn) [G_CC-082, 1-[2-[[1-[(4-methoxy-2,6-dimethyl-phenyl)sulfonyl]-piperidin-2-yl]-methoxy]-pyrimidin-4-yl]-4-pyridin-2-yl-piperidin-4-ol] is higher in inhibition at 10 µM: 59% for the first, 73% for the second.

First: COc1cc(C)c(S(=O)(=O)N2CCCCC2COc2nccc(N3CCC(O)(c4cccnc4)CC3)n2)c(C)c1 (stereo not drawn) [G_CC-067, 1-[2-[[1-(4-methoxy-2,6-dimethylphenyl)sulfonyl-2-piperidinyl]methoxy]-4-pyrimidinyl]-4-(3-pyridyl)-4-piperidinol]
Second: COc1cc(C)c(S(=O)(=O)N2CCC[C@H]2COc2nccc(N3CCC(OCCN4CCCC4)(c4cccc(F)c4)CC3)n2)c(C)c1 [G_CC-086, 4-[4-(3-fluorophenyl)-4-(2-pyrrolidin-1-yl-ethoxy)-piperidin-1-yl]-2-[[(2S)-1-[(4-methoxy-2,6-dimethyl-phenyl)sulfonyl]-pyrrolidin-2-yl]-methoxy]-pyrimidine]
The inhibition at 10 µM of the first is lower: 104% for the first, 105% for the second.
